Experimental data published in ChEMBL document CHEMBL3992544, “Novel 6-methoxycarbonyl indolinones bearing a pyrrole Mannich base moiety as angiokinase inhibitors” (Bioorg Med Chem, 2017).

Assays:
[1] = target: Platelet-derived growth factor receptor beta (Homo sapiens, UniProt P09619); test: Inhibition of human N-terminal GST-tagged PDGFRbeta cytoplasmic domain (557 to 1106 residues) expressed in baculovirus expression system preincubated for 10 mins followed by FAM-labeled peptide substrate addition measured after 1 hr by mobility shift assay
HT-29 [2] = test: Antiproliferative activity against human HT-29 cells after 72 hrs by MTT assay; settings: HT-29, 72 h
SK-OV-3 = test: Antiproliferative activity against human SKOV3 cells after 72 hrs by MTT assay; settings: SK-OV-3, 72 h
HeLa = test: Antiproliferative activity against human HeLa cells after 72 hrs by MTT assay
HT-29 [3] = test: Induction of apoptosis in human HT-29 cells after 48 hrs by acridine orange/ethidium bromide staining based confocal laser scanning microscopic method; type: functional, cell-based
[4] = target: Vascular endothelial growth factor receptor 1 (Homo sapiens, UniProt P17948); test: Inhibition of recombinant human GST-tagged VEGFR1 cytoplasmic domain (781 to 1338 residues) expressed in baculovirus expression system preincubated for 10 mins followed by FAM-labeled peptide substrate addition measured after 1 hr by mobility shift assay
[5] = target: Fibroblast growth factor receptor 1 (Homo sapiens, UniProt P11362); test: Inhibition of recombinant human GST-tagged FGFR1 cytoplasmic domain (398 to 822 residues) expressed in baculovirus expression system preincubated for 10 mins followed by FAM-labeled peptide substrate addition measured after 1 hr by mobility shift assay
Chain of Fibroblast growth factor receptor 1 (P11362 whole entry, the tested form may be a part): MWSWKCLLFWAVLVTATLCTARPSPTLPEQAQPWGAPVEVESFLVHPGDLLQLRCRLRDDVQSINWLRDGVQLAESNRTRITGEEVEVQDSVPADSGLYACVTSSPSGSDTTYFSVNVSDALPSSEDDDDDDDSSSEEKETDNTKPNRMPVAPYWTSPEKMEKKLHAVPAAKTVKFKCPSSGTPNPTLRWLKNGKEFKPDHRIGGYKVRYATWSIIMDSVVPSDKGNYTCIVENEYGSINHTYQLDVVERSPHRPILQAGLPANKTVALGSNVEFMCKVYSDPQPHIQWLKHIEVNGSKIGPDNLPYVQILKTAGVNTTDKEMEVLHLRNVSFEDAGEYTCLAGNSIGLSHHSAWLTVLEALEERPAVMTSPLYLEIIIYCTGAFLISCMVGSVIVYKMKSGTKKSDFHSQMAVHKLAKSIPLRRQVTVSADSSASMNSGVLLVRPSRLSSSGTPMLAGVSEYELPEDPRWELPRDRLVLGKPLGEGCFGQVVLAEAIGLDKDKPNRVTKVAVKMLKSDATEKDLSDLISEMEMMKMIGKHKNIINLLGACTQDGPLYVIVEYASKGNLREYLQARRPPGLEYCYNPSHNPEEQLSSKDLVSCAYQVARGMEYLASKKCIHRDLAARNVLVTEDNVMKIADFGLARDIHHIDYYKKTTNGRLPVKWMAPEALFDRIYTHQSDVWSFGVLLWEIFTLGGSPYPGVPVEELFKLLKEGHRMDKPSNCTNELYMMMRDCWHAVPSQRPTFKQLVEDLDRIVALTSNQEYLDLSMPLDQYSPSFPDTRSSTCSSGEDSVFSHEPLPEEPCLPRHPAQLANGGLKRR

Chain of Platelet-derived growth factor receptor beta (P09619 whole entry, the tested form may be a part): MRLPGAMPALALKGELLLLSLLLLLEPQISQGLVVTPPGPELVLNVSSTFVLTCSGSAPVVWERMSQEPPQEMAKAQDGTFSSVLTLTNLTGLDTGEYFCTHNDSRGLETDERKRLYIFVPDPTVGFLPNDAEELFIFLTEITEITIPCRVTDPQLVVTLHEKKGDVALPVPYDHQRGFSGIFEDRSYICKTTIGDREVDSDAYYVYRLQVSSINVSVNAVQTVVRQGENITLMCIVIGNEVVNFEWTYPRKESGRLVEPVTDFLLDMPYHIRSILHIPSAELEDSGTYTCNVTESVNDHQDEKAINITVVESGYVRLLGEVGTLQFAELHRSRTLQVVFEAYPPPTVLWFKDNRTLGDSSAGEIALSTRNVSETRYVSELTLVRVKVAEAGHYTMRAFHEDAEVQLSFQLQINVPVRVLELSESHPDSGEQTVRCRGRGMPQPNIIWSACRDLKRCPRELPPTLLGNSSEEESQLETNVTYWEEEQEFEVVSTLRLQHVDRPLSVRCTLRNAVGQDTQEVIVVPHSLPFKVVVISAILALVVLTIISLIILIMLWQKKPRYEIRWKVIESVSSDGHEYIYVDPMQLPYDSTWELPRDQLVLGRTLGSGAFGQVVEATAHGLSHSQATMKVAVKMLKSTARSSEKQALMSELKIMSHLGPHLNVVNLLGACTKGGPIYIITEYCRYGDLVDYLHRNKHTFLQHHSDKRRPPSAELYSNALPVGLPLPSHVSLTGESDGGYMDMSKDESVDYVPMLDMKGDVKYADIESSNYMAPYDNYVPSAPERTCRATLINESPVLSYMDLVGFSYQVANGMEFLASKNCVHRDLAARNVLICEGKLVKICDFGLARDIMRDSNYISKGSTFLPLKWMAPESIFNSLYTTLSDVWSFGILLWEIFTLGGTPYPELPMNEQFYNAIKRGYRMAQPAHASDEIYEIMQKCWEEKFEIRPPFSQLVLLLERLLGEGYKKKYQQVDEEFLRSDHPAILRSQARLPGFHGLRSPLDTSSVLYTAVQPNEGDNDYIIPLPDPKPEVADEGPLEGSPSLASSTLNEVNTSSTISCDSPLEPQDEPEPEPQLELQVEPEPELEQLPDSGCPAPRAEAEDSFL
Chain of Vascular endothelial growth factor receptor 1 (P17948 whole entry, the tested form may be a part): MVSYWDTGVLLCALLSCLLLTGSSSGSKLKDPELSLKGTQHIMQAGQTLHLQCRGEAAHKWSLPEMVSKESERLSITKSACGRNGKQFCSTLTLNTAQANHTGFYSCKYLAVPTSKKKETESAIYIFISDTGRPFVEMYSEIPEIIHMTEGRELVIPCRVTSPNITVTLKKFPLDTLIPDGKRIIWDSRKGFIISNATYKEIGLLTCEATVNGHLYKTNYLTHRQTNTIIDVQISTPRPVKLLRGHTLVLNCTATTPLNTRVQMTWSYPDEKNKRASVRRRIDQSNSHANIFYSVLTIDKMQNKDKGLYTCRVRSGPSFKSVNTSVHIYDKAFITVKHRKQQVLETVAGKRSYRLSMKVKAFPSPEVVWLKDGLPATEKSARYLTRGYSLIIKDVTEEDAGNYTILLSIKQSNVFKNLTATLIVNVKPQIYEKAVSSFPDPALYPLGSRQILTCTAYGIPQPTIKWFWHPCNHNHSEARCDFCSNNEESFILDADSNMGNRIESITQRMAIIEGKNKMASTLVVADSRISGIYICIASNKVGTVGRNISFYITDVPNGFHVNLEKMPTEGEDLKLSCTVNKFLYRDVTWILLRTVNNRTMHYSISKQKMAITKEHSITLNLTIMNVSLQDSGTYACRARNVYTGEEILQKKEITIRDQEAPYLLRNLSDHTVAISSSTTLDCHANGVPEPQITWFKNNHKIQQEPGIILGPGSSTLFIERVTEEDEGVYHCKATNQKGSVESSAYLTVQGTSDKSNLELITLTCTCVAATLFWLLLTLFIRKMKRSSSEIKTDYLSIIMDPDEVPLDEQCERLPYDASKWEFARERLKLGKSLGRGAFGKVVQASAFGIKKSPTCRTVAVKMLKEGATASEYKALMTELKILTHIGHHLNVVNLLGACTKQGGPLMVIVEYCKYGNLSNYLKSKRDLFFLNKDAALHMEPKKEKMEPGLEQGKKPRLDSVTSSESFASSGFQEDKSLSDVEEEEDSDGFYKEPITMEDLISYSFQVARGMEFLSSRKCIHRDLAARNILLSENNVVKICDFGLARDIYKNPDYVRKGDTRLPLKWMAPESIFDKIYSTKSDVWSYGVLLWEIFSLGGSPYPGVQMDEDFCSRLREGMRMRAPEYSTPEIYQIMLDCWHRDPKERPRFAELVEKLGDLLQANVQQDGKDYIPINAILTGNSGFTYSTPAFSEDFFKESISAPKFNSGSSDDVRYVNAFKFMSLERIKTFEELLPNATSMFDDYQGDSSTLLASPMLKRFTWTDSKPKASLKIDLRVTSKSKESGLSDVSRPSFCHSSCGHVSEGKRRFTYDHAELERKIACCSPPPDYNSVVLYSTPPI

| Structure (SMILES) | IC50 [1] [nM] | IC50 (HT-29 [2]) [nM] | IC50 (SK-OV-3) [nM] | IC50 (HeLa) [nM] | further results |
| --- | --- | --- | --- | --- | --- |
| COC(=O)c1ccc2c(c1)NC(=O)/C2=C(\Nc1ccc(-n2cccc2CN2CCNCC2)cc1)c1ccccc1 | 65.2 | – | – | – | – |
| COC(=O)c1ccc2c(c1)NC(=O)/C2=C(\Nc1ccc(-n2cccc2CN2CCN(C)CC2)cc1)c1ccccc1 | 83.2 | 3120 | 25900 | 30400 | – |
| CCN(CC)Cc1cccn1-c1ccc(N/C(=C2\C(=O)Nc3cc(C(=O)OC)ccc32)c2ccccc2)cc1 | 31.4 | – | – | – | – |
| COC(=O)c1ccc2c(c1)NC(=O)/C2=C(\Nc1ccc(-n2cccc2CN2CCCCC2)cc1)c1ccccc1 | 45.5 | – | – | – | – |

More lines, main results first:

| IC50 [1] [nM] | IC50 (HT-29 [2]) [nM] | IC50 (SK-OV-3) [nM] | IC50 (HeLa) [nM] | Structure (SMILES) | further results |
| --- | --- | --- | --- | --- | --- |
| 27.1 | – | – | – | COC(=O)c1ccc2c(c1)NC(=O)/C2=C(\Nc1ccc(-n2cccc2CN2CCCC2)cc1)c1ccccc1 | – |
| 67.8 | – | – | – | COC(=O)c1ccc2c(c1)NC(=O)/C2=C(\Nc1ccc(Cn2cccc2CN2CCN(C)CC2)cc1)c1ccccc1 | – |
| – | 4900 | 28800 | 51600 | COC(=O)c1ccc2c(c1)NC(=O)/C2=C(\Nc1ccc(N(C)C(=O)CN2CCN(C)CC2)cc1)c1ccccc1 [NINTEDANIB] | – |
| 14.3 | 980 | 5220 | 53200 | COC(=O)c1ccc2c(c1)NC(=O)/C2=C(\Nc1ccc(-n2cccc2CN(C)C)cc1)c1ccccc1 | Activity (HT-29 [3]): Dose-dependent effect; IC50 [4]: 99.2 nM; IC50 [5]: > 500 nM |
| 29.8 | – | – | – | COC(=O)c1ccc2c(c1)NC(=O)/C2=C(\Nc1ccc(Cn2cccc2CN(C)C)cc1)c1ccccc1 | – |
